Measurements from US5804549A, “Compositions with activity against helicobacter” (AMBI Inc., priority 1996, dated 1998).

Tested on: H. pylori strain ATCC 43504
Test: bactericidal activity: survival of bacteria by viable counts (CFU/ml)
Type: cell-based, Helicobacter pylori
Protocol: All tests of bactericidal activity in this example were conducted for 30 minutes at 37° C. The parameter measured was survival of bacteria exposed to GML and/or nisin, as determined by viable counts (colony forming units per ml [CFU/ml]) determined by standard dilution and plating techniques. Media, growth and test conditions were as follows: All cultures of Helicobacter were incubated under microaerobic conditions in GasPak. H. pylori was cultured for 2 to 4 days on Trypticase Soy agar+5% defibrinated sheep blood and then inoculated into NYCIII broth and grown overnight with gentle shaking. [NYCIII broth contains, per liter: 1 g soluble starch (Difco), 15 g proteose peptone #3 (Difco), 5 g NaCl, 4 gK2 HPO4, 1 g KH2 PO4, 5 g glucose, 25 ml fresh yeast extract (Gibco), 120 ml gamma-globulin-free horse serum (Sigma)]. Suspensions for testing the activity of GML and nisin were in 10% sucrose. Viable counts were determined after 3-5 days' growth on Trypticase Soy agar-5% sheep blood.
A suspension of bacteria was divided and exposed to different concentrations of the agents, singly or combined. Survival of bacteria is expressed relative to the unincubated (zero time) control suspension. Nisin alone, at concentrations between 30 and 300 μg/ml, had little or no effect on the viability of H. pylori (survival ≥10%). At concentrations of 1 and 3 μg/ml GML, in the absence of nisin, there was also little or no reduction in the viability of the inoculum (survival≥10%). […] When the bacteria were exposed to 10 μg/ml of GML alone, again more than 10% of the bacteria survived.

## nisin
Nisin 30-100 μg/ml administered alone
  effect on the viability of H. pylori: little effect on the viability
Nisin alone, 30 to 300 μg/ml, 30 minutes at 37° C., 10% sucrose, no chelator
  Survival of bacteria relative to the unincubated (zero time) control suspension: ≥ 10%

## CCCCCCCCCCCC(=O)OCC(O)CO (stereo not drawn) [GML, Glycerol monolaurate]
10 μg/ml of GML alone, 30 minutes at 37° C.
  Survival of bacteria relative to the unincubated (zero time) control suspension: more than 10%
GML 10 μg/ml administered alone
  effect on the viability of H. pylori: little effect on the viability
GML 1 and 3 μg/ml, in the absence of nisin, 30 minutes at 37° C.
  Survival of bacteria relative to the unincubated (zero time) control suspension: ≥ 10%
GML alone, 30 or 100 μg/ml, 30 minutes at 37° C.
  effect on viability of the bacterial suspensions: sterilized the bacterial suspensions
